The target of one test is T1, human orexin-1 receptor (Homo sapiens, UniProt O43613).
T1 construct: expressed in transfected cells; host or cells: CHO cells (G418 selection)
T1 sequence (O43613 1-425): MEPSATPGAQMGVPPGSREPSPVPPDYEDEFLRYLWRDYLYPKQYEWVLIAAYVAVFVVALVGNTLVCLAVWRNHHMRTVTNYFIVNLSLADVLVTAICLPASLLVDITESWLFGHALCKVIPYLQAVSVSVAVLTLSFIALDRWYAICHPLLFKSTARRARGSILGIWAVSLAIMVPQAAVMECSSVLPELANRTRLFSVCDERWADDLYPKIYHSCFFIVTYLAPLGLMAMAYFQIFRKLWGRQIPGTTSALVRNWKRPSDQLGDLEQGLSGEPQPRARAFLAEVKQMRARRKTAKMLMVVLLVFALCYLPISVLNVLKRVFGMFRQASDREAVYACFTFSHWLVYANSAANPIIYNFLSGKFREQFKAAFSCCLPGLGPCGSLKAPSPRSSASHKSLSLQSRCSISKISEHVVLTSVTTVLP
Briefly: Intracellular calcium measurements (FLIPR), OX1 receptor antagonist activity. The format is cell-based. Particulars: CHO cells expressing human orexin-1 receptor; 10 nM orexin-A as agonist; fluo-3 calcium signal. On the procedure: (§1) The OX1 and OX2 receptor antagonist activities of the compounds of general formula (I) were determined in accordance with the following experimental method.
(§2) Intracellular Calcium Measurements
(§3) Chinese hamster ovary (CHO) cells expressing the human orexin-1 receptor and the human orexin-2 receptor, respectively, were grown in culture medium (Ham F-12 with L Glutamine) containing 300 μg/ml G418, 100 U/ml penicillin, 100 μg/ml streptomycin and 10% inactivated foetal calf serum (FCS).
(§4) The cells were seeded at 80'000 cells/well into 96-well black clear bottom sterile plates (Costar) which had been precoated with 1% gelatine in Hanks' Balanced Salt Solution (HBSS). All reagents were from Gibco BRL.
(§5) The seeded plates were incubated overnight at 37° C. in 5% CO2.
(§6) Human orexin-A as an agonist was prepared as 1 mM stock solution in methanol:water (1:1), diluted in HBSS containing 0.1% BSA and 2 mM HEPES for use in the assay at a final concentration of 10 nM.
(§7) Antagonists were prepared as 10 mM stock solution in DMSO, then diluted in 96-well plates, first in DMSO, then in HBSS containing 0.1% bovine serum albumin (BSA) and 2 mM HEPES.
(§8) On the day of the assay, 100 μl of loading medium (HBSS containing 1% FCS, 2 mM HEPES, 5 mM probenecid (Sigma) and 3 μM of the fluorescent calcium indicator fluo-3 AM (1 mM stock solution in DMSO with 10% pluronic acid Molecular Probes)) was added to each well.
(§9) The 96-well plates were incubated for 60 min at 37° C. in 5% CO2. The loading solution was then aspirated and cells were washed 3 times with 200 μl HBSS containing 2.5 mM probenecid, 0.1% BSA, 2 mM HEPES. 100 μl of that same buffer was left in each well.
(§10) Within the Fluorescent Imaging Plate Reader (FLIPR, Molecular Devices), antagonists were added to the plate in a volume of 50 μl, incubated for 20 min and finally 100 μl of agonist was added. Fluorescence was measured for each well at 1 second intervals, and the height of each fluorescence peak was compared to the height of the fluorescence peak induced by 10 nM orexin-A with buffer in place of antagonist. For each antagonist; IC50 values (the concentration of compound needed to inhibit 50% of the agonistic response) were determined.

A further test has as its target T2, human orexin-2 receptor (Homo sapiens, UniProt O43614).
T2 construct: expressed in transfected cells; host or cells: CHO cells (G418 selection)
T2 sequence (O43614 1-444): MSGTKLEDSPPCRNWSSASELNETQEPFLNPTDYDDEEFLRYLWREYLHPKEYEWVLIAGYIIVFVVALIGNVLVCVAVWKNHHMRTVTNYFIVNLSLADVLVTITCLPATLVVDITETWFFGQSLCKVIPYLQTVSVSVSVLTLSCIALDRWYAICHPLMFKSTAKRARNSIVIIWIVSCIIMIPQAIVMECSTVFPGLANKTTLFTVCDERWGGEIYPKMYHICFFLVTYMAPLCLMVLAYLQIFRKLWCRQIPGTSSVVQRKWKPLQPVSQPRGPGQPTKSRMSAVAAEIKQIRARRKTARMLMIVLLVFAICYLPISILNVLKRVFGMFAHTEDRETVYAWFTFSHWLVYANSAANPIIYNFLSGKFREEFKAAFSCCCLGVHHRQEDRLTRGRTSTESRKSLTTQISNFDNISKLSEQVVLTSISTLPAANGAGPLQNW
The test is described as follows: Intracellular calcium measurements (FLIPR), OX2 receptor antagonist activity. Particulars: CHO cells expressing human orexin-2 receptor; 10 nM orexin-A as agonist; fluo-3 calcium signal. It counts as cell-based. On the procedure: as §1, §2, §3, §4, §5, §6, §7, §8, §9, §10

The record followed here is US7192950B2, “Benzazepines and related heterocyclic derivatives which are useful as orexin receptor antagonists” (Actelion Pharmaceuticals, Ltd., priority 2000, dated 2007).

With `COc1ccc(CC2c3cc(OC)c(OC)cc3CCCN2CC(=O)NC2Cc3ccccc3C2)cc1OC` (centres unmarked) [Example 3, 2-[1-(3,4-Dimethoxy-benzyl)-7,8-dimethoxy-1,3,4,5-tetrahydro-benzo[c]azepin-2-yl]-N-indan-2-yl-acetamide], the IC50 at human orexin-1 receptor was 99 nM; at human orexin-2 receptor, above 10000 nM.
In the case of `COc1ccc(CC2c3cc(OCC(F)F)c(OC)cc3CCCN2CC(=O)NC2CCc3ccccc32)cc1OC` (centres unmarked) [Example 69, 2-[8-(2,2-Difluoro-ethoxy)-1-(3,4-dimethoxy-benzyl)-7-methoxy-1,3,4,5-tetrahydro-benzo[c]azepin-2-yl]-N-indan-1-yl-acetamide], the IC50 worked out at 9 nM on human orexin-1 receptor and 349 nM at human orexin-2 receptor.
The matching figures for `COc1ccc(CC2c3cc(OC)c(OC)cc3CCCN2C(C(=O)NC2Cc3ccccc3C2)c2ccccc2)cc1OC` (centres unmarked) [Example 20, 2-[1-(3,4-Dimethoxy-benzyl)-7,8-dimethoxy-1,3,4,5-tetrahydro-benzo[c]azepin-2-yl]-N-indan-2-yl-2-phenyl-acetamide]: 23 nM and 231 nM.
`COc1ccc(CC2c3cc(OC)c(OC)cc3CCCN2CC(=O)NC2CCc3ccccc32)cc1OC` (centres unmarked) [Example 9, 2-[1-(3,4-Dimethoxy-benzyl)-7,8-dimethoxy-1,3,4,5-tetrahydro-benzo[c]azepin-2-yl]-N-indan-1-yl-acetamide]: the IC50 on human orexin-1 receptor stood at 23 nM; at human orexin-2 receptor it was 1240 nM.
In the case of `COc1ccc(CC2c3cc(OC)c(OC)cc3CCCN2C(C(=O)NCc2nc3ccccc3[nH]2)c2ccccc2)cc1OC` (centres unmarked) [Example 35, N-(1H-Benzoimidazol-2-ylmethyl)-2-[1-(3,4-dimethoxy-benzyl)-7,8-dimethoxy-1,3,4,5-tetrahydro-benzo[c]azepin-2-yl]-2-phenyl-acetamide], the figures for the IC50 on human orexin-1 receptor and on human orexin-2 receptor were 32 nM and 7040 nM, respectively.
For `COC(=O)CCNC(=O)C(c1ccccc1)N1CCCc2cc(OC)c(OC)cc2C1Cc1ccc(OC)c(OC)c1` (centres unmarked) [Example 34, 3-{2-[1-(3,4-Dimethoxy-benzyl)-7,8-dimethoxy-1,3,4,5-tetrahydro-benzo[c]azepin-2-yl]-2-phenyl-acetylamino}-propionic acid methyl ester], the values for the IC50 at human orexin-1 receptor and on human orexin-2 receptor were 41 nM and 9190 nM, respectively.
For the compound `COc1ccc(CC2c3cc(OC)c(OC)cc3OCCN2CC(=O)NC2CCc3ccccc32)cc1OC` (racemic) [Example 5, 2-[5-(3,4-Dimethoxy-benzyl)-7,8-dimethoxy-2,3-dihydro-5H-benzo[f][1,4]oxazepin-4-yl]-N-indan-1-yl-acetamide], the results for the IC50 at human orexin-1 receptor and on human orexin-2 receptor were 64 nM and 7900 nM, respectively.
In the same order, the values of `COc1ccc(CC2c3cc(OC)c(OC)cc3CCCN2C(C(=O)NCc2ccc3c(c2)OCO3)c2ccccc2)cc1OC` (centres unmarked) [Example 23, N-Benzo[1,3]dioxol-5-ylmethyl-2-[1-(3,4-dimethoxy-benzyl)-7,8-dimethoxy-1,3,4,5-tetrahydro-benzo[c]azepin-2-yl]-2-phenyl-acetamide] are 21 nM and 189 nM.
As for `COc1ccc(CC2c3cc(OC)c(OC)cc3CCCN2C(C(=O)NCc2ccco2)c2ccccc2)cc1OC` (centres unmarked) [Example 25, 2-[1-(3,4-Dimethoxy-benzyl)-7,8-dimethoxy-1,3,4,5-tetrahydro-benzo[c]azepin-2-yl]-N-furan-2-ylmethyl-2-phenyl-acetamide], the values for the IC50 at human orexin-1 receptor and at human orexin-2 receptor were 41 nM and 241 nM, respectively.
In the case of `COc1ccc(CC2c3cc(OC(C)C)c(OC)cc3CCCN2CC(=O)NC2CCc3ccccc32)cc1OC` (centres unmarked) [Example 68, 2-[1-(3,4-Dimethoxy-benzyl)-8-isopropoxy-7-methoxy-1,3,4,5-tetrahydro-benzo[c]azepin-2-yl]-N-indan-1-yl-acetamide], the IC50 on human orexin-1 receptor came to 12 nM; at human orexin-2 receptor, 174 nM.
